Data as given in ChEMBL document CHEMBL1155565, “Apramides A-G, novel lipopeptides from the marine cyanobacterium Lyngbya majuscula” (J Nat Prod, 2000).
In brackets after ≈: the same amount, converted by molar mass. Activity calls are given as the source filed them. The calls are words filed in the database; no cut-off is given here. Square brackets hold non-standard residues; d marks the D form. Peptide text beside a SMILES is read from it. * marks the point of attachment. Octanoyl(2R-Me,7,8-dehydro) = C=CCCCC[C@@H](C)C(=O)*; Oct7ynoyl(2R-Me) = C#CCCCC[C@@H](C)C(=O)*; NMeY = CN[C@@H](Cc1ccc(O)cc1)C(=O)O; Oct(7)ynoyl = C#CCCCCCC(=O)*; NMeV = CN[C@H](C(=O)O)C(C)C; X2 = c1csc([C@@H]2CCCN2*)n1; NMeA = CN[C@@H](C)C(=O)O; X1 = CN(Cc1nccs1)*

How the values were obtained:
KB = assay: Cytotoxicity against human KB cells; format: functional, cell-based
LoVo = assay: Cytotoxicity against human LoVo cells; format: functional, cell-based
Papain (Carica papaya) = molecular target: T1, Papain (Carica papaya) (UniProt P00784); assay: Inhibition of Papaya papain
T1 sequence (whole entry): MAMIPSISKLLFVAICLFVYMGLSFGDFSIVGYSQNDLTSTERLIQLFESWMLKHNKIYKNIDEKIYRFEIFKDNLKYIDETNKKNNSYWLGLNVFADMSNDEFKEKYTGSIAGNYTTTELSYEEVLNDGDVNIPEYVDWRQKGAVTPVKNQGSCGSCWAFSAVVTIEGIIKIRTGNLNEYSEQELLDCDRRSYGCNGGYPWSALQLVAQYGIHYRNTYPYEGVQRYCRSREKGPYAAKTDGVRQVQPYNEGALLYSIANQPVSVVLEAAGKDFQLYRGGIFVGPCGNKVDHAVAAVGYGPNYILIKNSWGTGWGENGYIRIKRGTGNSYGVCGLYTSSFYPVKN

[1] = molecular target: Prothrombin (Homo sapiens) (UniProt P00734); assay: Inhibition of thrombin
[2] = Inhibition of chymotrypsin
[3] = Inhibition of trypsin
[4] = Induction of elastase activity
[5] = Inhibition of elastase

SMILES | Activity (KB) | Activity (LoVo) | other results
C#CCCCCCC(=O)N(C)[C@@H](C)C(=O)N(C)[C@H](C(=O)N1CCC[C@H]1C(=O)N(C)[C@H](C(=O)N(C)[C@H](C(=O)N(C)[C@@H](Cc1ccc(OC)cc1)C(=O)N(C)Cc1nccs1)C(C)C)C(C)C)C(C)C ({Oct(7)ynoyl}-[NMeA][NMeV]P[NMeV][NMeV][NMeY](Me)-X1) | inactive | inactive | –
C=CCCCC[C@@H](C)C(=O)N(C)[C@@H](C)C(=O)N(C)[C@H](C(=O)N1CCC[C@H]1C(=O)N(C)[C@H](C(=O)N(C)[C@H](C(=O)N(C)[C@@H](Cc1ccc(OC)cc1)C(=O)N(C)Cc1nccs1)C(C)C)C(C)C)C(C)C ({Octanoyl(2R-Me,7,8-dehydro)}-[NMeA][NMeV]P[NMeV][NMeV][NMeY](Me)-X1) | inactive | inactive | –
C#CCCCC[C@@H](C)C(=O)N(C)[C@@H](C)C(=O)N(C)[C@H](C(=O)N(C)[C@H](C(=O)N(C)[C@H](C(=O)N(C)[C@H](C(=O)N1CCC[C@H]1c1nccs1)C(C)C)C(C)C)C(C)C)C(C)C [APRAMIDE G] ({Oct7ynoyl(2R-Me)}-[NMeA][NMeV][NMeV][NMeV][NMeV]-X2) | – | – | IC50 (KB): 0.033 µg/mL (≈ 0.0398 µM); IC50 (LoVo): 0.011 µg/mL (≈ 0.0133 µM)
C#CCCCC[C@@H](C)C(=O)N(C)[C@@H](C)C(=O)N(C)[C@H](C(=O)N1CCC[C@H]1C(=O)N(C)[C@H](C(=O)N(C)[C@H](C(=O)N(C)[C@@H](Cc1ccc(OC)cc1)C(=O)N1CCC[C@H]1c1nccs1)C(C)C)C(C)C)C(C)C ({Oct7ynoyl(2R-Me)}-[NMeA][NMeV]P[NMeV][NMeV][NMeY](Me)-X2) | inactive | inactive | –
C#CCCCCCC(=O)N(C)[C@@H](C)C(=O)N(C)[C@H](C(=O)N1CCC[C@H]1C(=O)N(C)[C@H](C(=O)N(C)[C@H](C(=O)N(C)[C@@H](Cc1ccc(OC)cc1)C(=O)N1CCC[C@H]1c1nccs1)C(C)C)C(C)C)C(C)C ({Oct(7)ynoyl}-[NMeA][NMeV]P[NMeV][NMeV][NMeY](Me)-X2) | inactive | inactive | –
C=CCCCC[C@@H](C)C(=O)N(C)[C@@H](C)C(=O)N(C)[C@H](C(=O)N1CCC[C@H]1C(=O)N(C)[C@H](C(=O)N(C)[C@H](C(=O)N(C)[C@@H](Cc1ccc(OC)cc1)C(=O)N1CCC[C@H]1c1nccs1)C(C)C)C(C)C)C(C)C ({Octanoyl(2R-Me,7,8-dehydro)}-[NMeA][NMeV]P[NMeV][NMeV][NMeY](Me)-X2) | inactive | inactive | –
C#CCCCC[C@@H](C)C(=O)N(C)[C@@H](C)C(=O)N(C)[C@H](C(=O)N1CCC[C@H]1C(=O)N(C)[C@H](C(=O)N(C)[C@H](C(=O)N(C)[C@@H](Cc1ccc(OC)cc1)C(=O)N(C)Cc1nccs1)C(C)C)C(C)C)C(C)C ({Oct7ynoyl(2R-Me)}-[NMeA][NMeV]P[NMeV][NMeV][NMeY](Me)-X1) | inactive | inactive | Activity (Papain (Carica papaya)): Active; Activity [1]: Active; Activity [2]: Active; Activity [3]: Active; Activity [4]: Active; Activity [5]: inactive
